# Reference: publication PMC7673538 (PLoS Biology, 2020)
# Several values for one entry are separate records, joined by “and”; a condition that tells them apart may be missing. Equal entries are not always repeated. Where two headings read alike, the source gives them in different places.
# Assays:
# EV-D68 = assay: microbe, parasite or virus in culture; format: cell-based, enterovirus D68
# HRV-A2 = assay: microbe, parasite or virus in culture; format: cell-based, human rhinovirus
# HRV-B14 = assay: microbe, parasite or virus in culture; format: cell-based, human rhinovirus
# [1] = system: representative EVs and RVs; format: cell-based
# human SERT = target: T1, human SERT (Homo sapiens, UniProt P31645); format: cell-based; settings: for SERT, Mean (Figure 8B): Control = 100.00; for SERT, Mean as % (Figure 8B): Control = 100%
# T1 construct: expressed in transfected cells; host or cells: HEK293 (gift of Dr. Hoener, F. Hoffmann-La Roche)
# human DAT = target: T2, human DAT (Homo sapiens, UniProt Q01959); format: cell-based; settings: for DAT, Mean (Figure 8B): Control = 100
# T2 construct: expressed in transfected cells; host or cells: HEK293 (gift of Dr. Hoener, F. Hoffmann-La Roche)
# human NET = target: T3, human NET (Homo sapiens, UniProt P23975); format: cell-based; settings: for NET, Mean (Figure 8B): Control = 100; for NET, Mean as % (Figure 8B): Control = 100%
# T3 construct: expressed in transfected cells; host or cells: HEK293 (gift of Dr. Hoener, F. Hoffmann-La Roche)
# T3 sequence (P23975 whole entry): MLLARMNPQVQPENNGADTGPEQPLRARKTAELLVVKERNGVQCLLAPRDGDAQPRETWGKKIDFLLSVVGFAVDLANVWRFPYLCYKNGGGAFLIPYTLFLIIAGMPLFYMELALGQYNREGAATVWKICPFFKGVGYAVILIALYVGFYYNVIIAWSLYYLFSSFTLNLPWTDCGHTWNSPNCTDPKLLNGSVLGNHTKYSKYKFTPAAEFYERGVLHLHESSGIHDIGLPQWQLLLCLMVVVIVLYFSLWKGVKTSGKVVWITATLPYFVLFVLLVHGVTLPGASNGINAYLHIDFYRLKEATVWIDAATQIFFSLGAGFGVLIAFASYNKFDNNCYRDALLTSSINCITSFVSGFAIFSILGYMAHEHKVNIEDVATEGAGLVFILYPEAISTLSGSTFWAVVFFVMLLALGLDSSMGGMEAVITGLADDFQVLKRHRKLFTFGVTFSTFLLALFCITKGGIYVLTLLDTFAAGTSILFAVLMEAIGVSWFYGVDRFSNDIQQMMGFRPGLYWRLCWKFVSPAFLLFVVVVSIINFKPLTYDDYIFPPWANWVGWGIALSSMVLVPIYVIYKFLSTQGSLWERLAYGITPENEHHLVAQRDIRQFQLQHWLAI
# T2 sequence (Q01959 whole entry): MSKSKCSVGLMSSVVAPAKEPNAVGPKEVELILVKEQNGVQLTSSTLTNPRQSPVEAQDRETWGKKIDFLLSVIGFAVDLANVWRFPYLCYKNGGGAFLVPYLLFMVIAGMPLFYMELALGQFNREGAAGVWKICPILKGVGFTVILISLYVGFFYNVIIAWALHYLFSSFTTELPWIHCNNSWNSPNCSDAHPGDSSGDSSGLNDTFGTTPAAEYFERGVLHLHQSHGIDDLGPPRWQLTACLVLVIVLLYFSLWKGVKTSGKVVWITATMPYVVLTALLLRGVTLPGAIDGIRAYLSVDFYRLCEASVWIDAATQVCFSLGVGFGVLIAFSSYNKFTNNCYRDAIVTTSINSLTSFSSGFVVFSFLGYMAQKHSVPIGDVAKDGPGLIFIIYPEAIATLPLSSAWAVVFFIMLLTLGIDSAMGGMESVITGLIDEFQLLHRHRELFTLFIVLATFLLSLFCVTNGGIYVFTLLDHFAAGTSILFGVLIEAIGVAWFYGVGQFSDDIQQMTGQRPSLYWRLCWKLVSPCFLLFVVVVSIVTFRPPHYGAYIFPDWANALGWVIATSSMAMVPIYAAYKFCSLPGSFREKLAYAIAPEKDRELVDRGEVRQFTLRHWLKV
# T1 sequence (P31645 whole entry): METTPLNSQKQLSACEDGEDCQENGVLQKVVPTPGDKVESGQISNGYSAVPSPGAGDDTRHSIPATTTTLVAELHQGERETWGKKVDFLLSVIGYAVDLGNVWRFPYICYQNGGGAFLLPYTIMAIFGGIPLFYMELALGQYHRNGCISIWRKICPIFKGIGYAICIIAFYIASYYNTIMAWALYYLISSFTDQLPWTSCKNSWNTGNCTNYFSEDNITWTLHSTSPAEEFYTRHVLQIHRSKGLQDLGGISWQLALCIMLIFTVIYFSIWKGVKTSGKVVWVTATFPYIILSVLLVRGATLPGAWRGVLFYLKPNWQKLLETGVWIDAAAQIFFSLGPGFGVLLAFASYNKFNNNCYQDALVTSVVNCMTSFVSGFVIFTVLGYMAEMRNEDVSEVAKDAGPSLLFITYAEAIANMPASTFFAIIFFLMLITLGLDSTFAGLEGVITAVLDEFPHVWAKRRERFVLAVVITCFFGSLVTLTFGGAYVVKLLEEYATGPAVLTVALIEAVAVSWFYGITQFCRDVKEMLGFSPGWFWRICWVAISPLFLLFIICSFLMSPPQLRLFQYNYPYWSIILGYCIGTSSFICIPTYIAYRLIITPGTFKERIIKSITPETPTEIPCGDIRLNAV
structure (smiles),measurement,setting,value
"O=C(c1cc[nH]c1)N(Cc1ccc(F)cc1)c1ccccc1 [Compound 12b, N-(4-Fluorobenzyl)-N-phenyl-1H-pyrrole-3-carboxamide]","Figure 7 dose-response raw data, EV-D68 (triplicate values)",EV-D68; Concentration 0.0137 µM,11.1333 and 12.4782 and 12.9265
same,"Figure 7 dose-response raw data, EV-D68 (triplicate values)",EV-D68; Concentration 0.0412 µM,10.386 and 11.4321 and 12.9265
same,"Figure 7 dose-response raw data, EV-D68 (triplicate values)",EV-D68; Concentration 0.1235 µM,107.007 and 105.506 and 109.76
same,"Figure 7 dose-response raw data, EV-D68 (triplicate values)",EV-D68; Concentration 0.3704 µM,98.999 and 100.501 and 112.888
same,"Figure 7 dose-response raw data, EV-D68 (triplicate values)",EV-D68; Concentration 1.1111 µM,104.38 and 102.252 and 111.637
same,"Figure 7 dose-response raw data, EV-D68 (triplicate values)",EV-D68; Concentration 3.3333 µM,103.504 and 113.389
same,"Figure 7 dose-response raw data, EV-D68 (triplicate values)",EV-D68; Concentration 10 µM,95.6204 and 100.626 and 112.763
same,EC50,"EV-D68; Enterovirus D, EVD68, HeLa R19, read-out: EC50 EV-D68",86 ± 7.1 nM
same,EC50,"EV-D68; Enterovirus D, EVD68, HeLa R19, read-out: Table in Figure 7A, EVD68, AVERAGE",85.7 nM
same,EC50,"EV-D68; Enterovirus D, EVD68, HeLa R19, read-out: Table in Figure 7A, EVD68, exp1-exp3",88 nM
same,EC50,"EV-D68; read-out: Table in Figure 7A, EVD68, exp1-exp3",93 nM and 76 nM
same,"Figure 7 dose-response raw data, HRV-A2 (triplicate values)",HRV-A2; Concentration 0.0046 µM,14.2402 and 14.6225 and 13.0933
same,"Figure 7 dose-response raw data, HRV-A2 (triplicate values)",HRV-A2; Concentration 0.0137 µM,14.2402 and 14.6225 and 13.0933
same,"Figure 7 dose-response raw data, HRV-A2 (triplicate values)",HRV-A2; Concentration 0.0412 µM,15.1004 and 21.3125 and 13.3801
same,"Figure 7 dose-response raw data, HRV-A2 (triplicate values)",HRV-A2; Concentration 0.1235 µM,12.6155 and 13.1889 and 12.7111
same,"Figure 7 dose-response raw data, HRV-A2 (triplicate values)",HRV-A2; Concentration 0.3704 µM,13.0933 and 13.1889 and 13.7623
same,"Figure 7 dose-response raw data, HRV-A2 (triplicate values)",HRV-A2; Concentration 1.1111 µM,12.6155 and 14.1446 and 14.4314
same,"Figure 7 dose-response raw data, HRV-A2 (triplicate values)",HRV-A2; Concentration 3.3333 µM,83.2845 and 84.4313 and 84.7181
same,"Figure 7 dose-response raw data, HRV-A2 (triplicate values)",HRV-A2; Concentration 11.1111 µM,99.5652 and 104.147 and 110.034
same,"Figure 7 dose-response raw data, HRV-A2 (triplicate values)",HRV-A2; Concentration 33.3333 µM,100.093 and 102.52 and 105.578
same,"Figure 7 dose-response raw data, HRV-A2 (triplicate values)",HRV-A2; Concentration 100 µM,100.093 and 102.52 and 105.578
same,EC50,"HRV-A2; Human rhinovirus sp., HRV2 / HRVA2, HeLa R19, read-out: Table in Figure 7A, HRV2, AVERAGE",2750 nM
same,EC50,"HRV-A2; Human rhinovirus sp., HRV2 / HRVA2, HeLa R19, read-out: Table in Figure 7A, HRV2, exp1-exp3",2760 nM
same,EC50,"HRV-A2; read-out: Table in Figure 7A, HRV2, exp1-exp3",3210 nM and 2280 nM
same,"Figure 7 dose-response raw data, HRV_B14 (triplicate values)",HRV-B14; Concentration 0.0046 µM,15.2266 and 14.5606
same,"Figure 7 dose-response raw data, HRV_B14 (triplicate values)",HRV-B14; Concentration 0.0137 µM,10.2522 and 17.3246 and 10.943
same,"Figure 7 dose-response raw data, HRV_B14 (triplicate values)",HRV-B14; Concentration 0.0412 µM,15.2266 and 14.5606 and 17.3246
same,"Figure 7 dose-response raw data, HRV_B14 (triplicate values)",HRV-B14; Concentration 0.1235 µM,106.02 and 106.455 and 105.786
same,"Figure 7 dose-response raw data, HRV_B14 (triplicate values)",HRV-B14; Concentration 0.3704 µM,105.351 and 107.391 and 106.589
same,"Figure 7 dose-response raw data, HRV_B14 (triplicate values)",HRV-B14; Concentration 1.1111 µM,98.3946 and 107.926 and 101.94
same,"Figure 7 dose-response raw data, HRV_B14 (triplicate values)",HRV-B14; Concentration 3.3333 µM,99.5652 and 104.147 and 110.034
same,"Figure 7 dose-response raw data, HRV_B14 (triplicate values)",HRV-B14; Concentration 11.1111 µM,98.3946 and 107.926 and 101.94
same,"Figure 7 dose-response raw data, HRV_B14 (triplicate values)",HRV-B14; Concentration 33.3333 µM,99.2522 and 114.147 and 100.034
same,"Figure 7 dose-response raw data, HRV_B14 (triplicate values)",HRV-B14; Concentration 100 µM,99.5652 and 104.147 and 100.034
same,EC50,"HRV-B14; Human rhinovirus sp., HRV14 / HRVB14, HeLa R19, read-out: Table in Figure 7A, HRV14, AVERAGE",95.3 nM
same,EC50,"HRV-B14; Human rhinovirus sp., HRV14 / HRVB14, HeLa R19, read-out: Table in Figure 7A, HRV14, exp1-exp3",112 nM
same,EC50,"HRV-B14; Human rhinovirus sp., HRVB14, HeLa R19, read-out: EC50 HRV-B14",95 ± 120 nM
same,EC50,"HRV-B14; read-out: Table in Figure 7A, HRV14, exp1-exp3",90 nM and 84 nM
same,spectrum of antiviral activity (in words),[1],improved antiviral profile against all tested viruses
same,"SERT, Mean (Figure 8B)",human SERT; 1µM,88.76
same,"SERT, Mean as % (Figure 8B)",human SERT; 1µM,89%
same,"SERT, Mean (Figure 8B)",human SERT; 100µM,102.47
same,"SERT, Mean as % (Figure 8B)",human SERT; 100µM,102%
same,inhibition of SERT-mediated uptake (in words),"human SERT; HEK293 cells expressing human SERT, 1 and 100 μM","neither 12a, 19b, 19d, nor the combined compound 12b inhibited"
same,"DAT, Mean (Figure 8B)",human DAT; 1µM,98.697
same,"DAT, Mean as % (Figure 8B)","human DAT; 1µM, Control = 100%",103%
same,"DAT, Mean (Figure 8B)",human DAT; 100µM,90.1253
same,inhibition of DAT function (in words),"human DAT; HEK293 cells expressing human DAT, 1 μM or 100 μM","neither 12a, 19b, 19d, nor the combined compound 12b inhibited"
same,"NET, Mean (Figure 8B)",human NET; 1µM,100
same,"NET, Mean as % (Figure 8B)",human NET; 1µM,100%
same,"NET, Mean (Figure 8B)",human NET; 100µM,103.417
same,"NET, Mean as % (Figure 8B)",human NET; 100µM,103%
same,inhibition of NET function (in words),"human NET; HEK293 cells expressing human NET, 1 μM or 100 μM","neither 12a, 19b, 19d, nor the combined compound 12b inhibited"
